Results: patent US20240344136A1, “RESPONSE TO EGFR BLOCKADE” (The Johns Hopkins University, priority 2015, published 2024)

What was measured:
[1] = tested on: CRC343 tumorgraft with MAP2K1 57K>N substitution; assay: Tumor growth in tumorgraft cohort CRC343; assay type: in vivo, NOD/SCID mice; conditions: CRC343, MAP2K1 57K>N; combination p<0.01, two-way ANOVA
[2] = tested on: CRC477 tumorgraft with FGFR1 amplification; assay: Tumor growth in tumorgraft cohort CRC477; assay type: in vivo, NOD/SCID mice; conditions: 6 mice per cohort, combination p<0.01, two-way ANOVA
[3] = tested on: CRC104 tumorgraft with EGFR 465G>E mutation; assay: Tumor growth in tumorgraft cohort CRC104; assay type: in vivo, NOD/SCID mice; conditions: CRC104, EGFR 465G>E; n=6 for each arm; p<0.01, two-way ANOVA
[4] = tested on: cetuximab-resistant tumors with 492S>R alterations in EGFR; conditions: EGFR 492S>R, previous reports (32); cited from earlier work

For `Cn1cnc2c(F)c(Nc3ccc(Br)cc3Cl)c(C(=O)NOCCO)cc21` [AZD6244], the Tumor growth [1] was “unproductive”.
For `CCN1CCN(c2ccc(Nc3cc(N(C)C(=O)Nc4c(Cl)c(OC)cc(OC)c4Cl)ncn3)cc2)CC1` [BGJ398, 3-(2,6-dichloro-3,5-dimethoxy-phenyl)-1-{6-[4-(4-ethyl-piperazin-1-yl)-phenylamino]-pyrimidin-4-yl}-1-methyl-urea], the Tumor growth [2] was “resistant”.
For panitumumab, the Tumor growth [3] is listed as “poorly sensitive” and the “Sensitivity of tumors to therapy” value [4] is listed as “sensitive”.
